Reference: PMC2584942, “Phase I dose escalation study of telatinib (BAY 57-9352) in patients with advanced solid tumours” (British Journal of Cancer, 2008)
Like-named read-outs stand apart in the source and are kept apart here.

Experiments:
[1] = Plasma pharmacokinetics of telatinib and metabolite BAY 60-8246 (LC-MS-MS, non-compartmental); assay type: in vivo, human; details: for half-life / Tmax / Cmax / AUC(0-t) / AUC: human; for AUC(0-t): read-out: AUC0–12; for AUC: read-out: AUC0–tn
Description: Patients with at least one valid pharmacokinetic profile were valid for the pharmacokinetic analysis. Plasma samples were collected at predose and 0.5, 1, 2, 3, 4, 6, 8, and 12 h postdose on day 1 and day 14 of cycle 1 and were analysed for BAY 57-9352 and its demethylated metabolite M-2, BAY 60-8246, using a validated LC-MS-MS analytical method.
Plasma pharmacokinetic parameters, area under the curve from time 0–12 h after dosing (AUC0−12), area under the curve from time 0 to last data point (AUC0−tn), maximum plasma concentration (Cmax), and time to maximum plasma concentration (tmax) of telatinib and its metabolite (BAY 60-8246) as well as half-life of telatinib were calculated by non-compartmental methods using WinNonlin version 4.1.a (Pharsight Corporation). The linear-logarithmic trapezoidal rule was used for calculating AUC. Half-life was calculated by linear least squares regression after logarithmic transformation of the terminal concentrations. Pharmacokinetic parameters were analysed using descriptive statistics.

sVEGFR-2 = experiment: Plasma sVEGFR-2 concentration (ELISA); assay type: in vivo, human; details: over the course of the study
Description: (§1) The effects of telatinib treatment on the plasma concentrations of sVEGFR-2, VEGF and bFGF were determined from blood samples taken at baseline, on day 14 of cycles 1, 2, 4, 6, etc. and at the final visit. Samples were analysed using the relevant quantitative enzyme-linked immunosorbent assay (ELISA) (R&D Systems Europe, Oxford, UK) according to the manufacturer's instructions. DCE-MRI was performed at baseline, on day 2 (only cycle 1), and on day 14 of cycles 1–3 to assess tumour blood flow/tumour vessel permeability in a subgroup of patients ([Morgan et al, 2003]).
(§2) To assess the biological activity of telatinib, plasma concentration analyses for the angiogenic markers VEGF, sVEGFR-2, bFGF, PDGF and […] were performed at baseline and during the course of the study. Furthermore, DCE-MRI measurements were done at baseline, on days 2 and 14 of cycle 1 and on day 14 of cycles 2 and 3. Evaluable DCE-MRI results were available for a subgroup of patients treated at dose levels of 300 mg BID or higher.

IL-8 = experiment: Plasma IL-8 level; assay type: in vivo, human; details: after 14 days of multiple dosing
Description: The relative changes between cycle 1, day 14 and baseline were calculated for VEGF, sVEGFR-2, bFGF, IL-8, tumour blood flow and tumour vessel permeability as measured by DCE-MRI and diastolic blood pressure (Figure 2C). […] The changes in VEGF and sVEGFR-2 plasma levels, the decrease in tumour blood flow and permeability and the increase in diastolic blood pressure were not predictive for the clinical outcome; there were no statistically significant differences in the change of biomarkers for patients who reached a progression-free survival of >3 months compared with those who stopped treatment during the first 3 months due to progressive disease.

[2] = tested on: tumour blood flow/tumour vessel permeability; experiment: DCE-MRI of tumour blood flow/tumour vessel permeability; assay type: in vivo, human
Description: as §1, §2

VEGFR-2 = tested on: VEGFR-2; design: method as in printed; details: biochemical assay; background statement, ref not given; cited from earlier work
PDGFR-β = tested on: PDGFR-β; design: method as in printed; details: biochemical assay; background statement, ref not given; cited from earlier work
DLD-1 colon carcinoma = tested on: DLD-1 colon carcinoma; design: method as in printed; details: DLD-1 colon carcinoma model; background statement, ref not given; cited from earlier work
[3] = tested on: H460 non-small cell lung carcinoma; design: method as in printed; details: H460 non-small cell lung carcinoma model; background statement, ref not given; cited from earlier work
major human CYP isoforms = tested on: major human CYP isoforms; design: method as in printed; details: at therapeutically relevant concentrations; background statement, ref not given; cited from earlier work
[4] = tested on: p-glycoprotein transporter; design: method as in printed; details: in vitro studies; background statement, ref not given; cited from earlier work
[5] = telatinib in plasma, day 14 cycle 1, 75 mg BID oral, 25 mg mesylate tablet, n=4, geometric mean (%CV)
[6] = telatinib in plasma, day 14 cycle 1, 150 mg BID oral, 25 mg mesylate tablet, n=6, geometric mean (%CV)
[7] = telatinib in plasma, day 14 cycle 1, 300 mg BID oral, 25 mg mesylate tablet, n=6, geometric mean (%CV)
[8] = telatinib in plasma, day 14 cycle 1, 600 mg BID oral, 150 mg mesylate tablet, n=11, geometric mean (%CV)
[9] = telatinib in plasma, day 14 cycle 1, 900 mg BID oral, 150 mg mesylate tablet, n=12, geometric mean (%CV)
[10] = telatinib in plasma, day 14 cycle 1, 1200 mg BID oral, 150 mg mesylate tablet, n=6, geometric mean (%CV)
[11] = telatinib in plasma, day 14 cycle 1, 1500 mg BID oral, 150 mg mesylate tablet, n=12, geometric mean (%CV)

With `CNC(=O)c1cc(COc2nnc(Nc3ccc(Cl)cc3)c3ccoc23)ccn1` [telatinib] the Relative bioavailability ([1]; 150 mg tablet formulation compared with 25 mg tablet formulation) was “less when compared with the 25 mg tablet formulation”, the “Dose proportionality of geometric mean Cmax and AUC0−12” value ([1]; BID dosing, plateaued in the 900–1500 mg BID dose range) was “less than dose-proportional” and the “Increase in geometric mean Cmax between dose levels” value ([1]; between the 300 and 600 mg BID dose level) was “two-fold”. For the same compound, the half-life ([1]; plasma, oral, telatinib, across dose levels, discussion statement, read-out: half-life) was 6.6 to 10.9 h, the Tmax ([1]; plasma, telatinib, oral, BID dosing, read-out: median tmax) was no more than 3 h and the Cmax [1, 5] was 212 ng/mL. The AUC(0-t) [1, 5] was 1390 ng·h/mL, the AUC [1, 5] was 1380 ng·h/mL and the half-life ([1]; telatinib in plasma, day 14 cycle 1, 75 mg BID oral, 25 mg mesylate tablet, n=4, geometric mean (%CV), read-out: t1/2 (converted)) was 7.4 h. It also gave a Tmax ([1]; telatinib in plasma, day 14 cycle 1, 75 mg BID oral, 25 mg mesylate tablet, n=4, median (range), read-out: tmax) of 2.1 h, a Cmax [1, 6] of 219 ng/mL and an AUC(0-t) [1, 6] of 1730 ng·h/mL. It also gave an AUC [1, 6] of 1750 ng·h/mL, a half-life ([1]; telatinib in plasma, day 14 cycle 1, 150 mg BID oral, 25 mg mesylate tablet, n=6, geometric mean (%CV), read-out: t1/2 (converted)) of 10.9 h and a Tmax ([1]; telatinib in plasma, day 14 cycle 1, 150 mg BID oral, 25 mg mesylate tablet, n=6, median (range), read-out: tmax) of 3 h. It also gave an AUC(0-t) ([1]; telatinib in plasma, day 14 cycle 1, 300 mg BID oral, 25 mg mesylate tablet, n=6 (sample size reduced by 2), geometric mean (%CV)) of 2860 ng·h/mL, a half-life ([1]; telatinib in plasma, day 14 cycle 1, 300 mg BID oral, 25 mg mesylate tablet, n=6 (sample size reduced by 2), geometric mean (%CV), read-out: t1/2 (converted)) of 8 h and a Cmax [1, 7] of 389 ng/mL. It also gave an AUC [1, 7] of 1920 ng·h/mL, a Tmax ([1]; telatinib in plasma, day 14 cycle 1, 300 mg BID oral, 25 mg mesylate tablet, n=6, median (range), read-out: tmax) of 1.5 h and a Cmax [1, 8] of 810 ng/mL. The AUC(0-t) [1, 8] was 5430 ng·h/mL, the AUC [1, 8] was 5430 ng·h/mL and the half-life ([1]; telatinib in plasma, day 14 cycle 1, 600 mg BID oral, 150 mg mesylate tablet, n=11, geometric mean (%CV), read-out: t1/2 (converted)) was 8.7 h. It also gave a Tmax ([1]; telatinib in plasma, day 14 cycle 1, 600 mg BID oral, 150 mg mesylate tablet, n=11, median (range), read-out: tmax) of 2.1 h, a half-life ([1]; telatinib in plasma, day 14 cycle 1, 900 mg BID oral, 150 mg mesylate tablet, n=12 (sample size reduced by 2), geometric mean (%CV), read-out: t1/2 (converted)) of 5.6 h and a Cmax [1, 9] of 1280 ng/mL. It also gave an AUC(0-t) [1, 9] of 7300 ng·h/mL, an AUC [1, 9] of 7410 ng·h/mL and a Tmax ([1]; telatinib in plasma, day 14 cycle 1, 900 mg BID oral, 150 mg mesylate tablet, n=12, median (range), read-out: tmax) of 2 h. For the same compound, the Cmax [1, 10] was 1140 ng/mL, the AUC(0-t) [1, 10] was 7260 ng·h/mL and the AUC [1, 10] was 7100 ng·h/mL. It also gave a half-life ([1]; telatinib in plasma, day 14 cycle 1, 1200 mg BID oral, 150 mg mesylate tablet, n=6, geometric mean (%CV), read-out: t1/2 (converted)) of 5.6 h, a Tmax ([1]; telatinib in plasma, day 14 cycle 1, 1200 mg BID oral, 150 mg mesylate tablet, n=6, median (range), read-out: tmax) of 2.5 h and a Cmax [1, 11] of 964 ng/mL. The AUC(0-t) [1, 11] was 6290 ng·h/mL, the AUC [1, 11] was 6170 ng·h/mL and the half-life ([1]; telatinib in plasma, day 14 cycle 1, 1500 mg BID oral, 150 mg mesylate tablet, n=12, geometric mean (%CV), read-out: t1/2 (converted)) was 6.6 h. The Tmax ([1]; telatinib in plasma, day 14 cycle 1, 1500 mg BID oral, 150 mg mesylate tablet, n=12, median (range), read-out: tmax) was 2.5 h, the median tmax ([1]; telatinib, oral, 75 mg BID to 1500 mg BID dose range) was no more than 3 h and the sVEGFR-2 levels (sVEGFR-2) was “dose-dependent decrease”. The IL-8 plasma levels (IL-8) was “no relevant changes”, the “iAUC60 for the gadolinium curve” value ([2]; DCE-MRI, dose levels of 300 mg BID or higher) was “decrease” and the “telatinib AUC0−12 at which substantial decreases in the gadolinium iAUC60 ratio were observed” value ([2]; day 14 of cycle 1) was “about 4 mg h l^−1”. For the same compound, the “total daily dose at which substantial decreases in the gadolinium iAUC60 ratio were observed” value ([2]; day 14 of cycle 1) was no less than 600 mg, the “VEGFR-2 tyrosine kinase activity” value (VEGFR-2) was “potent inhibitor” and the “PDGFR-β tyrosine kinase activity” value (PDGFR-β) was “potent inhibitor”. For the same compound, the “tumour growth in vivo” value (DLD-1 colon carcinoma) was “potent, dose-dependent reduction in tumour growth”, the “tumour growth in vivo” value [3] was “potent, dose-dependent reduction in tumour growth” and the “inhibitory and inductive potential on major human CYP isoforms” value (major human CYP isoforms) was “neither an inhibitory nor an inductive potential”. For the same compound, the “drug–drug interactions due to modulation of p-glycoprotein transporter activity” value [4] was “unlikely”.
